Values quoted from earlier work in US6878522B2, “Methods for the identification of compounds useful for the treatment of disease states mediated by prostaglandin D2” (priority 2000, dated 2005).

Conditions: inhaled, asthmatics; cited from earlier work

SMILES: CCCCC[C@H](O)/C=C/[C@H]1C(=O)C[C@H](O)[C@@H]1C/C=C\CCCC(=O)O [PGD2, prostaglandin D2]
- bronchoconstriction potency relative to PGF2α: 3.5 ×
- bronchoconstriction potency relative to histamine: 30 ×
